The results in this text go back to patent US7297523B2, “Human elongase genes and uses thereof” (Xenon Pharmaceuticals Inc., priority 2000, dated 2007).

For assay [1], the system named is Leukocytes. Put plainly: Conversion of 18:2n-6 into 20:2n-6 in leukocytes from STZ-induced diabetic rats. It counts as in vivo, rat. As to conditions: for Conversion of 18:2n-6 into 20:2n-6: leukocytes incubated for 24 h, mean ± S.D. of 6 rats.
The test system of assay [2] is D6D. Kind of assay: D6D activity in liver microsomes from STZ-induced diabetic rats. Type of assay: in vivo, rat. As to conditions: compared to control. The method, then: (§1) The desaturase and elongase enzyme activities in liver microsomes from streptozotocin (STZ)-induced diabetic rats was assayed at 2 and 7 weeks post-induction. Table 1 indicates the decrease in activities compared to a control, observed during the course of the experiment. An equivalent decrease in elongation activity in STZ-induced diabetic rats has been previously reported (Suneja et al., 1990, Biochim. Biophys. Acta, 1042: 81-85).

The subject of assay [3] is D5D. Put plainly: D5D activity in liver microsomes from STZ-induced diabetic rats. Type of assay: in vivo, rat. Particulars: compared to control. The method, then: as §1
Assay [4] has as its system Elongase. Put plainly: Elongase activity in liver microsomes from STZ-induced diabetic rats. It counts as in vivo, rat. As to conditions: compared to control. The method, then: as §1
The test system of assay [5] is Leukocytes. Kind of assay: Conversion of 18:3n-6 into 20:3n-6 in leukocytes from STZ-induced diabetic rats. Type of assay: in vivo, rat.
The subject of assay [6] is 20:5n-3. Put plainly: Elongation of [1-14C]20:5n-3 in yeast expressing human elongases (RP-HPLC). As to conditions: untagged elongase; 25 μM substrate; product 22:5n-3.
Description: (§2) For the expression of ELG1, ELG2, ELG3, ELG4, ELG5, ELG6 or ELG7 the yeast were transformed with pTh1009.1, pTh1014.1, pTh1015.1, pTh1021.1, pTh1018.1, pTh1041.1 or pTh1044.1, respectively. For the expression of ELG1/V5-His, ELG2/V5-His, ELG3/V5-His, ELG4/V5-His, ELG5/V5-His, ELG6/V5 -His or ELG7/V5-His the yeast were transformed with pTh1009.2, pTh1014.2, pTh1017.1, pTh1021.2, pTh1019.1, pTh1042.1 or pTh1045.1, respectively. Recombinant yeast cells were selected on SC-U medium.
(§3) Transformed yeast (approximately 3.2×10^6 cells/ml; O.D.600 0.4) were incubated in a 125 ml Erlenmeyer containing 10 ml of SC-U medium with 1% raffinose, 1% tergitol and 25 μM of the lithium salts of either [1-^14C]18:3n-3 (1 μCi), [1-^14C]18:3n-6 (1 μCi), [1-^14C]20:4n-6 (2 μCi), or [1-^14C]20:5n-3 (2 μCi). After 4 h incubation in an orbital incubator at 270 rpm and 30° C., cells reached the log phase and the transgene, expression was induced with galactose 30° C., cells reached the log phase and the transgene expression was induced with galactose (2% final concentration). The yeast were incubated for an additional 19 h and then harvested by centrifugation at 5000×g for 10 minutes at 4° C.
(§4) Cells were washed with Tris-HCl buffer (100 mM, pH 8.0) containing 0.1% BSA and total lipids were extracted as described below. The radioactivity from aliquots of the incubation medium, supernatant and cells was determined by liquid scintillation counting using a LS6500-Scintillation System (Beckman).
Alternatively, cells were resuspended in 1.5 ml of water and saponified with 2 ml of 10% KOH in ethanol. The total lipid extracts or the free fatty acids from the saponified samples were methylated using boron trifluoride in methanol at 90° C. for 30 min. The resultant methyl esters (FAME) were analyzed as described below. […]
Assay [7] relates to 18:3n-6. Kind of assay: Elongation of [1-14C]18:3n-6 in yeast expressing human elongases (RP-HPLC). Particulars: for Percent Elongation of 18:3n-6 to 20:3: product 20:3n-6; for Percent Elongation of 18:3n-6 to 22:3: product 22:3n-6.
Description: as §2, §3, §4
(§5) Alternatively, cells were resuspended in 1.5 ml of water and saponified with 2 ml of 10% KOH in ethanol. The total lipid extracts or the free fatty acids from the saponified samples were methylated using boron trifluoride in methanol at 90° C. for 30 min. The resultant methyl esters (FAME) were analyzed as described below.
(§6) Analyses of radiolabelled FAME were carried out on a Hewlett Packard 1090, series II chromatograph equipped with a diode array detector set at 205 nm, a radioisotope detector (model 171, Beckman, CA) with a solid scintillation cartridge (97% efficiency for ^14C-detection) and a reverse phase ODS (C-18) Beckman column (250 mm×4.6 mm i.d.; 5 μm particle size) attached to a pre-column with a μBondapak C-18 (Beckman) insert. FAME were separated isocratically with acetonitrile/water (95.5 v/v) at a flow rate of 1 ml/min and were identified by comparison with authentic standards. Alternatively, the eluted FAME were collected and the solvent evaporated. FAME were re-dissolved in hexane for further analysis by gas chromatography.
The test system of assay [8] is 18:3n-3. Kind of assay: Elongation of [1-14C]18:3n-3 in yeast expressing human elongases (RP-HPLC). As to conditions: untagged elongase; 25 μM substrate; product 20:3n-3.
Description: as §2, §3, §4, §5, §6
For assay [9], the system named is 20:4n-6. Put plainly: Elongation of [1-14C]20:4n-6 in yeast expressing human elongases (RP-HPLC). As to conditions: untagged elongase, 25 μM substrate.
Description: as §2, §3, §4, §5, §6
Where [10] appears, read: untagged elongase, 25 μM substrate.

As for `CN(N=O)C(=O)N[C@H]1C(O)O[C@H](CO)[C@@H](O)[C@@H]1O` (stereo partly drawn) [STZ, 2-desoxy-2-methylnitrosoamino carbonyl amino-D-glucopyranose], the figures for the “Conversion of 18:2n-6 into 20:2n-6” value in assay [1] (2 weeks post-induction) and in [1] (7 weeks post-induction) were 322 ± 119 pmol of 20:2n-6 produced/mg cellular protein and 147 ± 22 pmol of 20:2n-6 produced/mg cellular protein, respectively. For the same molecule, the “changes in the elongation of 18:2n-6 to 20:2n-6” value in assay [1] (leukocytes from animals sacrificed 7 weeks after the STZ treatment) is “no significant changes”. Also, the “reduction in the elongation of 18:2n-6 to 20:2n-6” value in [1] (leukocytes obtained 2 weeks after the STZ injection) is reported as “approximately 50%”. Besides, the entries for the “% Decrease of D6D activity (18:2n-6 → 18:3n-6)” value in [2] (2 weeks post-induction) and in assay [2] (7 weeks post-induction) were 28% and 33%, respectively. Moreover, the “% Decrease of D5D activity (20:3n-6 → 20:4n-6)” value in assay [3] (2 weeks post-induction) stood at 33%; in assay [3] (7 weeks post-induction), 41%. Further, the “% Decrease of Elongase activity (18:3n-6 → 20:3n-6)” value in [4] (2 weeks post-induction) is 46%; in assay [4] (7 weeks post-induction) it was 43%. Besides, the “Conversion of 18:3n-6 into 20:3n-6” value in [5] (2 weeks post-induction, incubation time 0 h) is listed as 0 pmol of 20:3n-6 produced/mg cellular protein; in assay [5] (2 weeks post-induction, incubation time 0.16 h, mean ± S.D. of 6 rats) it was 50 ± 8 pmol of 20:3n-6 produced/mg cellular protein; in [5] (2 weeks post-induction, incubation time 0.5 h, mean ± S.D. of 6 rats), 115 ± 26 pmol of 20:3n-6 produced/mg cellular protein; in assay [5] (2 weeks post-induction, incubation time 1 h, mean ± S.D. of 6 rats), 288 ± 23 pmol of 20:3n-6 produced/mg cellular protein; in assay [5] (7 weeks post-induction, incubation time 0 h), 0 pmol of 20:3n-6 produced/mg cellular protein; in [5] (7 weeks post-induction, incubation time 0.16 h, mean ± S.D. of 6 rats), 37 ± 9 pmol of 20:3n-6 produced/mg cellular protein. Besides, the “Conversion of 18:3n-6 into 20:3n-6” value in assay [5] (7 weeks post-induction, incubation time 0.5 h, mean ± S.D. of 6 rats) is given as 112 ± 10 pmol of 20:3n-6 produced/mg cellular protein; in assay [5] (7 weeks post-induction, incubation time 1 h, mean ± S.D. of 6 rats) it was 190 ± 92 pmol of 20:3n-6 produced/mg cellular protein; in assay [5] (7 weeks post-induction, incubation time 24 h, mean ± S.D. of 6 rats) it was 1008 ± 98 pmol of 20:3n-6 produced/mg cellular protein. In addition, the “activity of the elongation system (18:3n-6 into 20:3n-6)” value in assay [5] (STZ group versus control, regardless of the time after the last I.P. STZ injection) is recorded as “significant increase”.

B1: ELG2: human PUFA elongase expressed in yeast from plasmid pTh1014.1 (protein, UniProt Q9NYP7 1-299, looked up)
Very long chain fatty acid …: MEHFDASLSTYFKALLGPRDTRVKGWFLLDNYIPTFICSVIYLLIVWLGPKYMRNKQPFSCRGILVVYNLGLTLLSLYMFCELVTGVWEGKYNFFCQGTRTAGESDMKIIRVLWWYYFSKLIEFMDTFFFILRKNNHQITVLHVYHHASMLNIWWFVMNWVPCGHSYFGATLNSFIHVLMYSYYGLSSVPSMRPYLWWKKYITQGQLLQFVLTIIQTSCGVIWPCTFPLGWLYFQIGYMISLIALFTNFYIQTYNKKGASRRKDHLKDHQNGSMAAVNGHTNSFSPLENNVKPRKLRKD
With B1, the “Percent Elongation of 20:5n-3 to 22:5” value in [6] is 59%. Also, the “Percent Elongation of 18:3n-6 to 20:3” value came out at 73% in assay [7] (V5-His tagged elongase) and 62% in assay [7] (setting [10]). Moreover, the entries for the “Percent Elongation of 18:3n-6 to 22:3” value in [7] (V5-His tagged elongase) and in assay [7] (setting [10]) were 11% and 3%, respectively. Further, in assay [8], the “Percent Elongation of 18:3n-3 to 20:3” value stood at 16%. The “Percent Elongation of 20:4n-6 to 22:4” value in assay [9] (product 22:4n-6) is reported as 39%. Also, the “Percent Elongation of 20:4n-6 to 24:4” value in assay [9] (product 24:4n-6) was 1%.
